Results on one compound are retold here after article PMC4696656, “Insights into the Mechanism of Action of Bactericidal Lipophosphonoxins” (PLoS ONE, 2015).

In the series the test system is mice. The experiment in a line: MTD test in mouse model, administration per os. The class given is in vivo, Mice ICR. The following applies: for gross pathology findings: males and females. The protocol: The MTD (maximum tolerated dose) in mouse model was carried out by MediTox s.r.o. on a commercial basis. The complete protocol for the MTD testing can be found in S3 Supporting Information.
For the administration the appropriate amount of the Test item (TI) was dissolved in water (aqua for injection, B. Braun, Germany) and administered to mice either orally (in the volume of 0.5 mL/25 g of body weight) or intraperitoneally (in the volume of 1.0 mL/25 g of body weight).
S3 and S4 Tables summarize the test system parameters, the number of animals used, and the doses tested. Briefly, for each dose, 3 males are 3 females were used.
All animals from the study were observed daily for clinical signs, morbidity or mortality during acclimation, 0.5, 4, 6, 24 and 48 hours after administration. Onset, duration and severity of any signs were recorded, and used as criteria for early euthanasia decisions. The clinical observations included: changes in skin, fur, eyes, occurrence of secretion and excretion; autonomic activity (e.g. lacrimation, piloerection); changes in gait and posture; changes in unprovoked behavior, presence of stereotypes or bizarre behavior; response to handling. Ether was used for anesthesia in compliance with the Standard Operating Procedures (SOPs) of MediTox, the European convention for the protection of vertebrate animals used for experimental and other scientific purposes (ETS 123), the Czech Collection of laws No. 246/1992, inclusive of the amendments, on the Protection of animals against cruelty, and Public Notice of the Ministry of Agriculture of the Czech Republic, Collection of laws No. 419/2012 as amended, on keeping and exploitation of experimental animals. MediTox s.r.o. is a holder of the accreditation Certificate for user’s issued by Central Committee for Animal Protection of the Czech Republic.
All the animals that died during study or survived to their scheduled euthanasia (cervical dislocation under ether anesthesia) 8th day after the administration received a complete post-mortem examination and microscopic examination of organs showing evidence of gross pathology. The cause of death of animals that died during the study before the scheduled euthanasia was mainly venostasis of kidneys and liver.
S3 Supporting in formation. MTD test in mouse mo d el – a detailed […]
The MTD (maximum tolerated dose) in mouse model was carried out by MediTox s.r.o. on the […]
The stud y w as carried ou t accordin g to:
ICH M3(R2) – The International Conference on Harmonization of Technical Requirements for Registration of Pharm aceuticals for Human Use. Relevant SOPs (Standard operating procedures ) […]
Facility Management and Animal Husbandry
Animal car e was in comp liance with th e SOPs of MediTox s.r.o., the Euro pean convention fo r the protection of vertebrate animals used for experimental and other scientific purposes (ETS 123), the Czech Collection of laws No. 246/1992, inclusive of the amendments, on the Protection of animals against cruelty, and Public Notice of the Ministry of Agriculture of the Czech Republic, Collection of laws No. 419/2012 as amended, on keeping and exploitation of experimental animals. MediTox s.r.o. is a holder of the accreditation Certificate for user’s issued by Central Committee for Animal Protection of the Czech Republic.
Animal Welfare Act Compliance
The stud y was prepared for this t ype of ex perimen t and approved b y th e Ins titutional Animal Care and Use Committee ( IAC UC) and the Committee for Animal Protection of the Ministry of Health (PP 09/2013) of the Czech Republic. Procedures used in this report were designed to conform to accepted practices and to minimize or avoid causing pain, distress, or discomfort to the animals.
The number of animals selected for use in this study was considered to be the minimum number necessar y to meet scienti fic and regulator y guideli nes for this t ype of stud y.
Preparation of the Test item application formulations […]

Take `CCCCCCCCCCCCCCCCOP(=O)(CCN1C[C@@H](O)[C@H](O)C1)OC[C@H]1O[C@@H](n2ccc(=O)[nH]c2=O)[C@H](O)[C@@H]1O` (some centres unmarked) [DR5026]: the gross pathology findings result reads like this: (D1-PO, 5 mg/kg p.o.) “NO FINDINGS”; (D2-PO, 500 mg/kg p.o.) “NO FINDINGS”; (D3-PO, 1000 mg/kg p.o.) “NO FINDINGS”; (D4-PO, 1500 mg/kg p.o.) “NO FINDINGS”; (D5-PO, 2000 mg/kg p.o.) “NO FINDINGS”. The signs of toxicity result (per os 5, 500, 1000, 1500 and 2000 mg/kg, single dose) is “did not cause any signs of toxicity”. For the same compound, where the note is “per os 5-2000 mg/kg”, the gross pathology changes result was “no gross pathology changes were detected”. Besides, the “highest peroral dose without any signs of toxicity (maximal tolerated dose)” value (peroral, single dose) came out at 2000 mg/kg.
